Measured values taken from patent US20180312473A1, “PHENAZINE DERIVATIVES AS ANTIMICROBIAL AGENTS” (priority 2015, published 2018).
Converted amounts (≈) assume the structure as drawn. Where two headings read alike, the source gives them in different places.

Tests used:
[1] = system: MRSA-2 (methicillin-resistant Staphylococcus aureus clinical isolate); experiment: MIC assay (broth microdilution, CLSI); format: cell-based; details: Staphylococcus aureus, MRSA
[2] = system: MRSA-1 (methicillin-resistant Staphylococcus aureus clinical isolate); experiment: MIC assay (broth microdilution, CLSI); format: cell-based; details: read-out: MIC, MRSA-1
[3] = system: Staphylococcus epidermidis (ATCC 12228); experiment: MIC assay (broth microdilution, CLSI); format: cell-based; details: Staphylococcus epidermidis
[4] = system: Enterococcus faecium (ATCC 700221), VRE; experiment: MIC assay (broth microdilution, CLSI); format: cell-based
[5] = system: M. tuberculosis H37Ra (ATCC 25177); experiment: Mycobacterium tuberculosis MIC assay; format: cell-based
Procedure: (§1) The culture was then diluted with fresh medium until an OD600 of 0.01 was reached. […] The final DMSO concentration was maintained at 0.5%. […] Three rows were reserved for each compound. […] OD600 absorbance was recorded using SPECTRAMAX M5 (Molecular Devices). Data obtained from three independent experiments were analyzed using Excel.
as §1, with “EXCEL.” for “Excel.”

in vitro = format: cell-based; details: human
HeLa cells = experiment: in vitro; format: cell-based; details: human, 24 h
human red blood cells = experiment: Hemolysis assay with red blood cells; details: 200 μM
How it was run: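 Washed human red blood cells exposed to compounds added from DMSO stocks, 1 h at 37° C.; supernatant OD read at 405 nm after centrifugation. % hemolysis calculated relative to DMSO (0%) and Triton X (100%) controls, from three independent experiments.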

[6] = system: MRSE (S. epidermidis ATCC 35984) planktonic cells and biofilms; experiment: Calgary Biofilm Device (CBD) assay, MBC/MBEC; format: cell-based, Staphylococcus epidermidis; details: for MBC: Staphylococcus epidermidis; for MRSE MBEC: Table 5
[7] = system: VRE (E. faecium ATCC 700221) planktonic cells and biofilms; experiment: Calgary Biofilm Device (CBD) assay, MBC/MBEC; format: cell-based, Enterococcus faecium; details: for MBC: Enterococcus
MRSA BAA-1707 = experiment: MIC assay (broth microdilution, CLSI); details: Staphylococcus aureus, read-out: MIC, MRSA BAA-1707
MRSA BAA-44 = experiment: MIC assay (broth microdilution, CLSI); details: Staphylococcus aureus, read-out: MIC, MRSA BAA-44
[8] = system: MRSA BAA-1707 planktonic cells and biofilms; experiment: Calgary Biofilm Device (CBD) assay, MBC/MBEC
[9] = system: MRSA BAA-44 planktonic cells and biofilms; experiment: Calgary Biofilm Device (CBD) assay, MBC/MBEC; details: Staphylococcus aureus, read-out: MRSA BAA-44 MBC
[10] = system: Staphylococcus epidermidis (ATCC 35984), MRSE; experiment: MIC assay (broth microdilution, CLSI); format: cell-based; details: Staphylococcus epidermidis
[11] = system: MRSA-2 planktonic cells and biofilms; experiment: Calgary Biofilm Device (CBD) assay, MBC/MBEC; format: cell-based, Staphylococcus aureus
[12] = system: S. aureus clinical isolate SA 129; experiment: MIC assay (broth microdilution, CLSI); details: Staphylococcus aureus, read-out: MIC, SA 129
[13] = system: S. aureus clinical isolate SA 138; experiment: MIC assay (broth microdilution, CLSI); details: Staphylococcus aureus, read-out: MIC, SA 138
[14] = system: S. aureus clinical isolate SA 147; experiment: MIC assay (broth microdilution, CLSI); details: Staphylococcus aureus, read-out: MIC, SA 147
[15] = system: S. aureus clinical isolate SA 156; experiment: MIC assay (broth microdilution, CLSI); details: Staphylococcus aureus, read-out: MIC, SA 156
[16] = ATCC12228, Table 2A, read-out: MIC, Staphylococcus epidermidis (ATCC 12228)
[17] = ATCC12228, Table 7, b lowest concentration tested, read-out: MIC, S. epidermidis 12228
[18] = Enterococcus faecium, Table 2A, read-out: MIC, Enterococcus faecium (ATCC 700221)
[19] = Table 7, b lowest concentration tested, read-out: MIC, VRE 700221
[20] = Table 5, c lowest concentration tested

## Oc1c(Br)cc(Br)c2nc3cc(Br)c(Br)cc3nc12 [Compound 17, 2,4,7,8-tetrabromo-1-hydroxyphenazine]
[1]; read-out: MIC, MRSA-2
  MIC: 6.25 µM (≈ 3.2 µg/mL)
[1]; read-out: MIC, MRSA-2, Table 2B, a midpoint of 2-fold range, * partial growth inhibition at highest concentration
  MIC: 6.25 µM (≈ 3.2 µg/mL)
[1]; read-out: MIC, MRSA-2, Table 7, a midpoint of 2-fold range, b lowest concentration tested
  MIC: 6.25 µM (≈ 3.2 µg/mL)
[2]; Staphylococcus aureus, MRSA
  MIC: 12.5 µM (≈ 6.4 µg/mL)
[2]; Table 2B, b lowest concentration tested
  MIC: 12.5 µM (≈ 6.4 µg/mL)
[3]; [16]
  MIC: 0.05 to 0.1 µM (≈ 0.0256 to 0.0512 µg/mL)
[3]; [17]
  MIC: 0.08 µM (≈ 0.0409 µg/mL)
[4]; [18]
  MIC: 0.39 µM (≈ 0.2 µg/mL)
[4]; Enterococcus faecium, Table 2B, b lowest concentration tested, read-out: MIC, Enterococcus faecium (ATCC 700221)
  MIC: 0.39 µM (≈ 0.2 µg/mL)
[4]; [19]
  MIC: 0.39 µM (≈ 0.2 µg/mL)
[5]; Mycobacterium tuberculosis, 168 h, M. tuberculosis H37Ra, 7 days, read-out: Mtb MIC
  MIC: > 50 µM
[5]; Mycobacterium tuberculosis, Table 7, read-out: MIC, M. tuberculosis H37Ra
  MIC: > 50 µM
[5]; Table 7, read-out: MIC, M. tuberculosis H37Ra
  MIC: >50 µM
In vitro
  IC50 at 24 h: > 100 µM
HeLa cells
  IC50: > 100 µM
Human red blood cells; human, 1 h, pH 7.2
  % Hemolysis (200 μM): ≤1%
[6]; read-out: MBC, Staphylococcus epidermidis (ATCC 35984)
  MBC: 1.56 µM (≈ 0.798 µg/mL)
[6]; read-out: MRSE 35984 MBC
  MBC: 1.56 µM (≈ 0.798 µg/mL)
[6]; read-out: MRSE MBC
  MBC: 1.56 µM (≈ 0.798 µg/mL)
[6]; Table 4
  MBEC, Staphylococcus epidermidis (ATCC 35984): 6.25 µM
[6]
  MRSE MBEC: 6.25 µM
[7]; Table 5, c lowest concentration tested, read-out: VRE MBC
  MBC: 0.39 µM (≈ 0.2 µg/mL)
[7]; Table 8, c lowest concentration tested, read-out: VRE 700221 MBC
  MBC: 0.39 µM (≈ 0.2 µg/mL)
[7]; [20]
  VRE MBEC: 0.39/0.39 μM
MRSA BAA-1707
  MIC: 12.5 µM (≈ 6.4 µg/mL)
MRSA BAA-44
  MIC: 25 µM (≈ 12.8 µg/mL)
[8]; Staphylococcus aureus, read-out: MRSA BAA-1707 MBC
  MBC: 6.25 µM (≈ 3.2 µg/mL)
[9]
  MBC: 50 µM (≈ 25.6 µg/mL)

## Oc1c(I)cc(I)c2nccnc12 [Compound 26]
[1]; Table 7, a midpoint of 2-fold range, b lowest concentration tested, read-out: MIC, MRSA-2
  MIC: 3.13 µM (≈ 1.25 µg/mL)
[2]; Staphylococcus aureus, MRSA, Table 11
  MIC: 1.56 µM (≈ 0.621 µg/mL)
[3]; [16]
  MIC: 6.25 µM (≈ 2.49 µg/mL)
[3]; [17]
  MIC: 6.25 µM (≈ 2.49 µg/mL)
[10]; Table 2A, read-out: MIC, Staphylococcus epidermidis (ATCC 35984)
  MIC: 3.13 µM (≈ 1.25 µg/mL)
[10]; Table 7, read-out: MIC, MRSE 35984
  MIC: 3.13 µM (≈ 1.25 µg/mL)
[4]; [18]
  MIC: 12.5 µM (≈ 4.97 µg/mL)
[4]; [19]
  MIC: 12.5 µM (≈ 4.97 µg/mL)
In vitro
  IC50 at 24 h: > 100 µM
Human red blood cells; human, 1 h, pH 7.2
  % Hemolysis (200 μM): ≤1%
  % Hemolysis at 200 μM: ≤1%
[11]; Staphylococcus aureus, MRSA, Table 4, read-out: MBC, MRSA-2
  MBC: > 2000 µM
[11]; Staphylococcus aureus, MRSA, Table 8, a/b 2-/4-fold range in independent experiments, read-out: MRSA-2 MBC
  MBC: > 2000 µM
[6]; Table 8, read-out: MRSE 35984 MBC
  MBC: 750 µM (≈ 298 µg/mL)
MRSA BAA-1707
  MIC: 1.56 µM (≈ 0.621 µg/mL)
MRSA BAA-44
  MIC: 1.56 µM (≈ 0.621 µg/mL)
[12]
  MIC: 6.25 µM (≈ 2.49 µg/mL)
[13]
  MIC: 6.25 µM (≈ 2.49 µg/mL)
[14]
  MIC: 6.25 µM (≈ 2.49 µg/mL)
[15]
  MIC: 3.13 µM (≈ 1.25 µg/mL)

## CN[C@H](CC(C)C)C(=O)N[C@H]1C(=O)N[C@@H](CC(N)=O)C(=O)N[C@H]2C(=O)N[C@H]3C(=O)N[C@H](C(=O)N[C@H](C(=O)O)c4cc(O)cc(O)c4-c4cc3ccc4O)[C@H](O)c3ccc(c(Cl)c3)Oc3cc2cc(c3O[C@@H]2O[C@H](CO)[C@@H](O)[C@H](O)[C@H]2O[C@H]2C[C@](C)(N)[C@H](O)[C@H](C)O2)Oc2ccc(cc2Cl)[C@H]1O [Vancomycin, vancomycin, reference compound]
[3]; ATCC12228, read-out: MIC, S. epidermidis 12228
  MIC: 1.17 µM (≈ 1.7 µg/mL)
[3]; ATCC12228, read-out: MIC, Staphylococcus epidermidis (ATCC 12228)
  MIC: 1.17 µM (≈ 1.7 µg/mL)
[4]; Enterococcus faecium, read-out: MIC, Enterococcus faecium (ATCC 700221)
  MIC: > 100 µM
[4]; Table 2B, b lowest concentration tested, read-out: MIC, Enterococcus faecium (ATCC 700221)
  MIC: >100 µM
[4]; read-out: MIC, VRE 700221
  MIC: > 100 µM
Human red blood cells; 1 h, 37 °C
  % Hemolysis (200 μM): ≤1%
Human red blood cells; red blood cells
  % Hemolysis at 200 μM: <1%
Human red blood cells; Table 8, human red blood cells
  % Hemolysis at 200 μM: ≤1%
[11]; Staphylococcus aureus, MRSA, read-out: MBC, MRSA-2
  MBC: 5.9 µM (≈ 8.55 µg/mL)
[11]; Staphylococcus aureus, MRSA, read-out: MRSA-2 MBC
  MBC: 3 µM (≈ 4.35 µg/mL)
[11]; Table 8, a/b 2-/4-fold range in independent experiments, read-out: MRSA-2 MBC
  MBC: 3.0 µM (≈ 4.35 µg/mL)
[6]; read-out: MRSE 35984 MBC
  MBC: 3 µM (≈ 4.35 µg/mL)
[6]
  MRSE MBEC: > 2,000 μM
[7]; read-out: VRE 700221 MBC
  MBC: > 200 µM
[7]; [20]
  VRE MBEC: 150 µM
[13]
  MIC: 1.17 µM (≈ 1.7 µg/mL)
[14]
  MIC: 1.17 µM (≈ 1.7 µg/mL)
[8]; Table 8
  MRSA BAA-1707 MBEC: > 2000 µM
